The target in one data set is SARS-CoV-2 MPro (Severe acute respiratory syndrome coronavirus 2, UniProt P0DTD1). The experiment in a line: MPro activity assay (de-quenching of Edans fluorescence on cleavage of a Dabcyl/Edans peptide). The conditions noted are these: for IC50: 60 min pre-incubation, 5 μM substrate; for activity at 10 µM: read-out: % activity MPro; for Class (MPro activity class): in-house acquired data, internal screening under standardized conditions (128 compounds). In kind it is biochemical.

Data set [1] in a line: Cytotoxicity assay, WST-1. The conditions noted are these: human, CC50 A549 cells. (Formazan colour is commonly taken as a measure of viable cells.)
Data set [2] concerns SARS-CoV-2 (βCoV/KOR/KCDC03/2020). Briefly: microbe, parasite or virus in culture. In kind it is cell-based.
A short description of another data set: in vitro. The conditions noted are these: African green monkey.
Data set [3] concerns human lung cell line A549. Briefly: Cytotoxicity assay, WST-1. Conditions: read-out: CC50 A549 cells, 24 h.
The test system of another data set is MPro. Conditions: compiled from peer-reviewed sources (287 compounds) ref the 18 original articles; cited from earlier work.
The subject of another data set is SARS-CoV-2. Also noted: method as in Henss et al., 2021. The conditions noted are these: 72 h assay ref Henss et al., 2021, cited from earlier work.
Where [4] appears, read: Severe acute respiratory syndrome coronavirus 2, Vero, 24 h.
[5] abbreviates: Severe acute respiratory syndrome coronavirus 2, Vero, read-out: inhibition of viral replication.

One may read the IC50 as the concentration that gives 50% inhibition. What is called inhibition is how much of the control response was suppressed.

In brackets after ≈: the same amount, converted by molar mass. Several values for one entry are separate records, joined by “and”; a condition that tells them apart may be missing. Identical values can stand only once. Like-named read-outs stand apart in the source and are kept apart here. Marks after values point to notes of the source that are not given here. Square brackets hold non-standard residues; d marks the D form. Peptide text beside a SMILES is read from it. * marks the point of attachment. Bn = c1ccc(C*)cc1; Sar = CNCC(=O)O; tBu = CC(C)(C)* Bounds are passed on as bounds.

Turning to `[O-][n+]1onc2ccc(/C=C\c3ccc(Cl)cc3)cc21` [2d], the activity at 25 µM on SARS-CoV-2 MPro (read-out: MPro activity (%)) was 53.2 ± 0.2%. In data set [1], the CC50 at 24 h was > 50 µM.
Turning to `[O-][n+]1onc2ccc(/C=C/Sc3ccc(Cl)cc3)cc21` [3d], the IC50 against SARS-CoV-2 MPro is 0.73 ± 0.16 µM; in data set [2], 8.3 µM; in data set [2] (setting [4]) it was ~8 µM. The CC50 is 15.2 µM in the data set “in vitro” and < 50 µM in data set [3]. For the same compound, in data set [1], the CC50 at 24 h is ≤ 50 µM.
Consider `[O-][n+]1onc2ccc(/C=C/[S+]([O-])c3ccc(Cl)cc3)cc21` (stereo not shown) [4d], for which the figures for the IC50 (on SARS-CoV-2 MPro; in data set [2]; in data set [2] (setting [4])) were 0.121 ± 0.002 µM, 7.3 µM and ~8 µM, respectively. The CC50 in the data set “in vitro” was 15.2 µM; in data set [3] it was 50 to 100 µM. Besides, the CC50 at 24 h in data set [1] is ≤ 50 µM.
For `O=C(/C=C/c1ccc2no[n+]([O-])c2c1)c1ccc(Cl)cc1` [5d], the figures for the IC50 (on SARS-CoV-2 MPro; in data set [2]; in data set [2] (setting [4])) were 0.64 ± 0.02 µM, 43.2 µM and ~44 µM, respectively. For the same compound, the CC50 in the data set “in vitro” was > 50 µM. Further, the CC50 at 24 h in data set [1] is > 50 µM.
In the case of `O=C(OC[C@H]1O[C@@H]([S+]([O-])c2ccccc2)[C@H](OC(=O)c2ccccc2)[C@@H](OC(=O)c2ccccc2)[C@@H]1OC(=O)c1ccccc1)c1ccccc1` (stereo partly shown) [7a], the IC50 on SARS-CoV-2 MPro was 20.2 ± 1.9 µM; in data set [2] (setting [4]), > 50 µM. Besides, the inhibition at 25 µM in data set [2] (Severe acute respiratory syndrome coronavirus 2, Vero, at 25 μM, read-out: inhibition of viral replication) was 15%. For the same compound, the inhibition at 50 µM in data set [2] (setting [5]) is 21%. Further, in “in vitro”, the CC50 was > 50 µM.
Regarding `O=CC(CC1CCNC1=O)NC(=O)C(CC1CCCCC1)NC(=O)c1cc2ccccc2[nH]1` (stereo not shown) [11a], at SARS-CoV-2 MPro, the activity at 10 µM was 104 ± 1.1%. The “Class (MPro activity class)” value with MPro is 1 (Compounds with IC50 < 10 µM or with a percentage of enzyme inhibition >50% at 10 µM were labelled as ACTIVE).
Regarding `Nc1ccc(S(=O)(=O)c2ccc(Nc3c([N+](=O)[O-])c(Cl)cc4c3no[n+]4[O-])cc2)cc1` [22d], the IC50 is 0.37 ± 0.085 µM against SARS-CoV-2 MPro, 44.8 µM in data set [2] and ~44 µM in data set [2] (setting [4]). Also, in “in vitro”, the CC50 was > 50 µM. Also, in data set [1], the CC50 at 24 h is > 100 µM.
For `O=C(/C=C/c1ccc2ccccc2c1)c1c(O)ccc2ccccc12` [27d], at SARS-CoV-2 MPro, 5.8 µM corresponded to half-maximal inhibition (IC50). Also, in data set [2], the “antiviral activity (in words)” value is given as “lacked antiviral activity”.
On to `O=C(/C=C/c1cccc2ccccc12)c1c(O)ccc2ccccc12` [28d], for which the half-maximal inhibitory concentration (IC50) against SARS-CoV-2 MPro was 1.4 µM and 1.35 µM; in data set [2] (setting [4]), 48.9 µM. Besides, the “impairment of cell viability” value with Vero cells (African green monkey) was ~25%. Also, in “in vitro”, the CC50 is > 50 µM. Also, the CC50 at 24 h in data set [1] was > 100 µM.
Take `O=c1c(Cl)c(Cl)cnn1Cc1nc2ccccc2c2ccccc12` [39d]: on SARS-CoV-2 MPro, the concentration for half-maximal inhibition (IC50) turned out to be 2 µM. The inhibition at 50 µM in data set [2] (setting [5]) was 18%. The “impairment of cell viability” value in the data set on Vero cells (at 50 μM) was 13%.
As to `CCN(CC)CCCC(C)Nc1ccnc2cc(Cl)ccc12` (stereo not shown) [Chloroquine], the figures for the IC50 in data set [2] and in data set [2] (setting [4]) were 17.8 µM and 18 µM, respectively. The “Class (MPro activity class)” value in the data set with MPro was 0 (compounds with IC50 > 20 μM, percentage inhibition <80% at 20 µM or 50 μM, or percentage enzyme inhibition <50% at 10 µM were labelled as INACTIVE). Moreover, the CC50 in “in vitro” was > 150 µM.
Consider `O=c1c(Cl)c(Cl)cnn1Cc1nc2ccccc2c2ccccc12` [Cpd 39], for which the IC50 at SARS-CoV-2 MPro is 1.97 ± 0.5 µM; in data set [2] (setting [4]), > 50 µM. In addition, the “Class (MPro activity class)” value on SARS-CoV-2 MPro is on record as 0 (compounds with IC50 > 20 μM, percentage inhibition <80% at 20 µM or 50 μM, or percentage enzyme inhibition <50% at 10 µM were labelled as INACTIVE). The CC50 in “in vitro” is > 50 µM. For the same compound, the CC50 at 24 h in data set [1] was 50 to 100 µM.
As to `O=c1c2ccccc2[se]n1-c1ccccc1` [Ebselen], the values for the IC50 in data set [2] and in data set [2] (setting [4]) were 9.7 µM and 10 µM, respectively. Also, in “in vitro”, the CC50 was > 50 µM. In data set [1], the CC50 at 24 h was > 100 µM.
Regarding `Cc1cccc(C)c1OCC(=O)N[C@@H](Cc1ccccc1)[C@@H](O)C[C@H](Cc1ccccc1)NC(=O)[C@H](C(C)C)N1CCCNC1=O` [Lopinavir], the figures for the half-maximal inhibitory concentration (IC50) in data set [2] and in data set [2] (setting [4]) were 21.5 µM and 22 µM, respectively. In addition, the “Class (MPro activity class)” value in the data set with MPro is 0 (compounds with IC50 > 20 μM, percentage inhibition <80% at 20 µM or 50 μM, or percentage enzyme inhibition <50% at 10 µM were labelled as INACTIVE). The CC50 in “in vitro” is > 150 µM.
`CCC(CC)COC(=O)[C@H](C)N[P@](=O)(OC[C@H]1O[C@@](C#N)(c2ccc3c(N)ncnn23)[C@H](O)[C@@H]1O)Oc1ccccc1` [Remdesivir]: the results for the IC50 in data set [2] and in data set [2] (setting [4]) were 7.8 µM and 8 µM, respectively. For the same compound, the “SI: selectivity index = CC50 mammalian cell/IC50 SARS-CoV-2” value in the data set with Vero cells is >50 (>6.4) ^a. Further, the “Class (MPro activity class)” value in the data set with MPro is recorded as 0 (compounds with IC50 > 20 μM, percentage inhibition <80% at 20 µM or 50 μM, or percentage enzyme inhibition <50% at 10 µM were labelled as INACTIVE). Moreover, in the data set “in vitro”, the CC50 was > 50 µM.
In the case of `CC(C)(C)OC(=O)Nc1cccn(C(CC2CCCCC2)C(=O)NC(CC2CCNC2=O)C(=O)C(=O)NC2CC2)c1=O` (stereo not shown) [compound 13a], at SARS-CoV-2 MPro, the activity at 10 µM was 98.6 ± 0.9%. For the same compound, the “Class (MPro activity class)” value in the data set with MPro is 1 (Compounds with IC50 < 10 µM or with a percentage of enzyme inhibition >50% at 10 µM were labelled as ACTIVE).
For the compound `O=C(/C=C/c1ccc2ccccc2c1)c1ccccc1O` [compound 25], the 50% inhibitory concentration (IC50) against SARS-CoV-2 MPro was 0.46 ± 0.21 µM; in data set [2] it was 17.5 µM. Moreover, the CC50 in “in vitro” was 38.8 µM. Moreover, the CC50 at 24 h in data set [1] was > 50 µM.
Consider `O=C(O[C@@H]1Cc2c(O)cc(O)cc2O[C@@H]1c1cc(O)c(O)c(O)c1)c1cc(O)c(O)c(O)c1` [epigallocatechin gallate], for which the “IC50 SARS-CoV-2 replication” value with SARS-CoV-2 is 1.73 µg/mL (≈ 3.77 µM). The IC50 with SARS-CoV-2 (read-out: IC50 SARS-CoV-2 replication) is 3.9 µM.
`CC(OC(C)(C)C)C1NC(=O)CN(C)C(=O)C(Cc2ccccc2)NC(=O)CN(C)C1=O` (stereo not shown) [vCOV194214] (cyclo([Sar]F[Sar]T(tBu)); configuration not given here): on SARS-CoV-2 MPro, the “Class (MPro activity class)” value is listed as 0 (compounds with IC50 > 20 μM, percentage inhibition <80% at 20 µM or 50 μM, or percentage enzyme inhibition <50% at 10 µM were labelled as INACTIVE).
Same read-out and setting: the value for `CN1CC(=O)NC(Cc2ccccc2)C(=O)N(C)CC(=O)NC(CSCc2ccccc2)C1=O` (stereo not shown) [vCOV194219] (cyclo([Sar]C(Bn)[Sar]F); configuration not given here) was 0 (compounds with IC50 > 20 μM, percentage inhibition <80% at 20 µM or 50 μM, or percentage enzyme inhibition <50% at 10 µM were labelled as INACTIVE).
